In ChEMBL document CHEMBL4007418, “Application of Off-Rate Screening in the Identification of Novel Pan-Isoform Inhibitors of Pyruvate Dehydrogenase Kinase” (J Med Chem, 2017):

What was measured:
[1] = target: T1, Heat shock protein HSP 90-alpha (Homo sapiens, UniProt P07900); experiment: Displacement of fluorescein-labelled VER160364 from HSP90A (unknown origin) after 90 mins by fluorescence polarization assay
[2] = target: T2, [Pyruvate dehydrogenase (acetyl-transferring)] kinase isozyme 1, mitochondrial (Homo sapiens, UniProt Q15118); experiment: Inhibition of PDHK1 (unknown origin) assessed as decrease in phosphorylation of E1alpha subunit at serine 293 residue after 1 hr by DELFIA
T2 sequence (Q15118 whole entry): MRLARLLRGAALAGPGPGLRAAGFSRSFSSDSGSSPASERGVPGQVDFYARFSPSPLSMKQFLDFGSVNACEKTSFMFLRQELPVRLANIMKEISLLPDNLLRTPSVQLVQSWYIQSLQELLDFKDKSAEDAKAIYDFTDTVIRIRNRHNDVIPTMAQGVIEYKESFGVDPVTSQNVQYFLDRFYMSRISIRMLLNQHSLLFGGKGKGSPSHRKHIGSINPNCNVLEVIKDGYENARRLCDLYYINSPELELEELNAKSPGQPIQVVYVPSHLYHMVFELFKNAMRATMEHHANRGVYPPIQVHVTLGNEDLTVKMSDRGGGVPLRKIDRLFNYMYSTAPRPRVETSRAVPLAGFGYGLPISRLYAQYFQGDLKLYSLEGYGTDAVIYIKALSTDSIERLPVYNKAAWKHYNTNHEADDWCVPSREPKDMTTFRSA

[3] = target: T3, [Pyruvate dehydrogenase (acetyl-transferring)] kinase isozyme 4, mitochondrial (Homo sapiens, UniProt Q16654)
T3 sequence (Q16654 whole entry): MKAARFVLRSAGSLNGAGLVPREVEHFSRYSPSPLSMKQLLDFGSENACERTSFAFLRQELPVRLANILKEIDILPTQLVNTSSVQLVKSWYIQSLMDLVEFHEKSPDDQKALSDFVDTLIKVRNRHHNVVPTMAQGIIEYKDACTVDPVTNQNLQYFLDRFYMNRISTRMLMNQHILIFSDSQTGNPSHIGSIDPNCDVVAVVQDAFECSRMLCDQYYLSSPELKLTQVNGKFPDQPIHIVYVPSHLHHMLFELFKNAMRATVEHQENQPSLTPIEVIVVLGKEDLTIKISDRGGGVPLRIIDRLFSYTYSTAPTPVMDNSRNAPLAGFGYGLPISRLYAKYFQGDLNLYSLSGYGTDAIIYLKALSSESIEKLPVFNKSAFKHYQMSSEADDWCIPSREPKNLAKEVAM
Description: Inhibition of PDHK4 (unknown origin) assessed as decrease in phosphorylation of E1alpha subunit at serine 293 residue after 1 hr by DELFIA

[4] = target: T2, [Pyruvate dehydrogenase (acetyl-transferring)] kinase isozyme 1, mitochondrial; experiment: Binding affinity to PDHK1 (unknown origin) by surface plasmon resonance method
[5] = target: T1, Heat shock protein HSP 90-alpha; experiment: Dissociation rate from HSP90A (unknown origin) by surface plasmon resonance method
[6] = target: T2, [Pyruvate dehydrogenase (acetyl-transferring)] kinase isozyme 1, mitochondrial; experiment: Inhibition of fluorescein-labelled VER160364 binding to PDHK1 (unknown origin) after 90 mins by fluorescence polarization assay
[7] = target: T2, [Pyruvate dehydrogenase (acetyl-transferring)] kinase isozyme 1, mitochondrial; experiment: Inhibition of PDHK1 in human PC3 cells assessed as decrease in phosphorylation of E1alpha subunit at serine 293 residue after 1 hr by ELISA; type: cell-based
[8] = target: T2, [Pyruvate dehydrogenase (acetyl-transferring)] kinase isozyme 1, mitochondrial; experiment: Binding affinity to PDHK1 (unknown origin) by isothermal titration calorimetry
[9] = test system: PC-3; experiment: Antiproliferative activity against human PC3 cells after 96 hrs by sulphorhodamine B assay; type: functional; conditions: PC-3, 96 h
[10] = target: [Pyruvate dehydrogenase (acetyl-transferring)] kinase isozyme 2, mitochondrial (Homo sapiens, UniProt Q15119); experiment: Inhibition of fluorescein-labelled VER160364 binding to PDHK2 (unknown origin) after 90 mins by fluorescence polarization assay
[11] = target: [Pyruvate dehydrogenase (acetyl-transferring)] kinase isozyme 3, mitochondrial (Homo sapiens, UniProt Q15120); experiment: Inhibition of fluorescein-labelled VER160364 binding to PDHK3 (unknown origin) after 90 mins by fluorescence polarization assay
Sequence of [Pyruvate dehydrogenase (acetyl-transferring)] kinase isozyme 3, mitochondrial (Q15120 whole entry): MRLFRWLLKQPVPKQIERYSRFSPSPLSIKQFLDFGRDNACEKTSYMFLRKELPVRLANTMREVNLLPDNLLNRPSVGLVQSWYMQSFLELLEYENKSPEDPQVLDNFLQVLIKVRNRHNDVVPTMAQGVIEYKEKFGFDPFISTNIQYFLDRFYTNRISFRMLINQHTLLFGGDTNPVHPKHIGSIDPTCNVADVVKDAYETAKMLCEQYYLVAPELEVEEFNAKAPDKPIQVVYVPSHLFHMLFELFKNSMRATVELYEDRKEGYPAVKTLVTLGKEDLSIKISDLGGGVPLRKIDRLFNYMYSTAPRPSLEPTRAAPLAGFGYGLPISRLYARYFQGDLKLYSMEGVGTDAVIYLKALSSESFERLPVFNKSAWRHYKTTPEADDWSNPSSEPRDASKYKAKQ

[12] = target: T3, [Pyruvate dehydrogenase (acetyl-transferring)] kinase isozyme 4, mitochondrial; experiment: Inhibition of fluorescein-labelled VER160364 binding to PDHK4 (unknown origin) after 90 mins by fluorescence polarization assay
[13] = target: T1, Heat shock protein HSP 90-alpha; experiment: Displacement of fluorescein-labelled VER160364 from HSP90A (unknown origin) at 200 uM after 90 mins by fluorescence polarization assay relative to control
[14] = target: T2, [Pyruvate dehydrogenase (acetyl-transferring)] kinase isozyme 1, mitochondrial; experiment: Inhibition of SUMO-tagged PDHK1 (unknown origin) in presence of [gamma-32P]ATP after 30 mins by SDS-PAGE based phosphor imaging method
[15] = Inhibition of PDHK (unknown origin); set-up: species or system Homo sapiens

| SMILES | IC50 [2] [µM] | Ki [1] [µM] | Ki [6] [µM] | Kd [4] [µM] | IC50 [7] [µM] | other results |
| --- | --- | --- | --- | --- | --- | --- |
| O=S(=O)(c1ccc(O)cc1O)N1Cc2cc(O)cc(O)c2C1 | 2.1 | – | – | – | – | IC50 [1]: 47 µM; IC50 [3]: 0.84 µM |
| COc1cc2c(cc1OC)C(c1cccnc1)N(C(=O)c1ccc(O)cc1O)CC2 (configuration not stated) | – | – | – | – | – | koff [4]: 0.019 s⁻¹; koff [5]: 0.29 s⁻¹ |
| CN(Cc1ccc2nccnc2c1)C(=O)c1ccc(N(Cc2ccccc2)C(=O)c2ccc(O)cc2O)cc1 | 0.0627 | 1.02 | 0.026 | 0.001 | 5.65 | – |
| CN(C(=O)c1ccc(O)cc1O)c1ccc(C(=O)N2CC(C(=O)O)Oc3ccccc32)cc1 (configuration not stated) | – | 0.184 | 0.26 | – | – | – |
| CN(C)C(=O)c1ccc(S(=O)(=O)c2ccc(NC(=O)[C@@](C)(O)C(F)(F)F)c(Cl)c2)cc1 | – | – | – | – | 0.041 | – |
| COc1ccc(CN(C)C(=O)c2ccc(N(Cc3ccccc3)C(=O)c3ccc(O)cc3O)cc2)cc1 | 0.201 | > 50 | 0.241 | 0.01 | 10.6 | – |
| Cc1cc2ccccc2nc1-c1ccc2c(c1)CC[C@H](C)N2C(=O)c1ccc(O)cc1O | 0.139 | 10.6 | 0.124 | 0.115 | 2.68 | Kd [8]: 0.153 µM; GI50 [9]: 14 µM |
| COc1ccc(N(C)C(=O)c2ccc(O)cc2O)cc1 | – | 1.38 | 1.93 | – | – | IC50 [10]: 2.23 µM; Ki [10]: 1.07 µM; IC50 [1]: 3.02 µM; Ki [11]: 0.55 µM; Ki [12]: 1.27 µM |
| Cc1cnc(Cl)nc1-c1ccc2c(c1)CC[C@H](C)N2C(=O)c1ccc(O)cc1O | 0.063 | 1.98 | 0.037 | 0.019 | 2.74 | Kd [8]: 0.032 µM; GI50 [9]: 40 µM |
| C[C@@H]1CN(C(=O)[C@@](C)(O)C(F)(F)F)[C@@H](C)CN1C(=O)c1ccc(C#N)cc1 | – | – | – | – | 0.066 | – |
| C[C@H]1CCc2cc(C(=O)N(C)Cc3ccc4nccnc4c3)ccc2N1C(=O)c1ccc(O)cc1O | 0.036 | 2.51 | 0.016 | 0.006 | 3.01 | GI50 [9]: 30 µM |
| C[C@@H]1CCc2cc(F)ccc2N1C(=O)c1ccc(O)cc1O | – | – | 1.17 | – | – | inhibition [13]: 62%; koff [4]: 0.27 s⁻¹; koff [5]: 0.6 s⁻¹ |
| C[C@@H]1C[C@H]2O[C@@H]2/C=C\C=C\C(=O)Cc2c(Cl)c(O)cc(O)c2C(=O)O1 [RADICICOL] | – | – | – | – | – | IC50 [14]: 230 µM; IC50 [15]: 1200 µM |
| C[C@H]1CCc2cc(F)ccc2N1C(=O)c1ccc(O)cc1O | – | 3.48 | 0.09 | – | – | koff [4]: 0.08 s⁻¹; koff [5]: 0.18 s⁻¹ |
| C[C@H]1CCc2cc(-c3nc(Cl)nc4[nH]ccc34)ccc2N1C(=O)c1ccc(O)cc1O | 0.135 | > 50 | 0.64 | 0.009 | 1.82 | GI50 [9]: 15 µM |
| CN(C)C(=O)c1ccc(N(C)C(=O)c2ccc(O)cc2O)cc1 | – | 1.23 | – | – | – | IC50 [10]: 0.35 µM; Ki [10]: 0.15 µM; IC50 [1]: 2.97 µM |
| CCN(CC)CCN(C(=O)c1ccc(O)cc1O)c1ccc(OC)cc1 | – | – | – | – | – | IC50 [10]: 2.78 µM; Ki [10]: 1.33 µM; inhibition [13]: 79% |
| CCNC(=O)c1noc(-c2cc(Cl)c(O)cc2O)c1-c1ccc(CN2CCOCC2)cc1C | – | 0.032 | 0.136 | – | – | koff [4]: 0.014 s⁻¹; koff [5]: 0.001 s⁻¹ |
| Cc1cnc(Cl)nc1-c1ccc(N(Cc2ccc(CN3CCCC3)cc2)C(=O)c2ccc(O)cc2O)cc1 | 0.101 | 3.21 | 0.037 | 0.078 | 2.15 | GI50 [9]: 38 µM |
| Cc1cnc(Cl)nc1-c1ccc(N(Cc2ccc(CNC(=O)C(F)F)cc2)C(=O)c2ccc(O)cc2O)cc1 | – | > 100 | – | – | – | GI50 [9]: 26.2 µM |
| C[C@H]1CCc2cc(-c3nc(Cl)nc4ccsc34)ccc2N1C(=O)c1ccc(O)cc1O | 0.198 | 1.78 | 0.467 | 0.01 | 2.78 | – |
| Cc1cnc(Cl)nc1-c1ccc(N(Cc2ccccc2)C(=O)c2ccc(O)cc2O)cc1 | 0.072 | 6.55 | 0.067 | 0.016 | 1.72 | Kd [8]: 0.06 µM; GI50 [9]: > 40 µM |
| O=C(c1ccc(O)cc1O)N(Cc1ccccc1)c1ccccc1 | – | – | 0.98 | – | – | koff [4]: 0.26 s⁻¹; koff [5]: 0.14 s⁻¹ |
| Cc1cnc(Cl)nc1-c1ccc2c(c1)CC[C@H](c1cccnc1)N2C(=O)c1ccc(O)cc1O | 0.015 | > 50 | – | 0.01 | 5.77 | – |
| CC1CCc2cc(F)ccc2N1C(=O)c1ccc(O)cc1O (racemic) | – | 9.15 | 0.2 | – | – | koff [4]: 0.08 s⁻¹; koff [5]: 0.23 s⁻¹ |
| CCNC(=O)CN(C(=O)c1ccc(O)cc1O)c1ccc(OC)cc1 | – | – | – | – | – | IC50 [10]: 4.46 µM; Ki [10]: 2.17 µM; inhibition [13]: 74% |
